Measured values from patent US20130034522A1, “THERAPIES FOR TREATING HEPATITIS C VIRUS INFECTION” (priority 2010, published 2013).
Values joined by “and” are separate entries in the source; they are usually repeats but may differ in a detail not shown here. Identical values can stand only once.

What was measured:
[1] = PK parameters of VX-222 in Study 101 Part C and Study 102 Part A; type: in vivo, human
Experimental: In Part C of Study 101, VX-222 was administered as multiple doses of 750 mg b.i.d. to treatment-naïve subjects with chronic hepatitis C for 3 days. In addition, in Part A of Study 102, VX-222 was administered as multiple doses ranging from 250 mg to 750 mg BID and 1500 mg once a day to treatment-naïve subjects with chronic hepatitis C for 3 days.

[2] = test system: genotype 1 chronic hepatitis C infection; assay: Study 101 Part C: pharmacodynamics of VX-222 (HCV plasma RNA); type: in vivo, Hepatitis C virus; conditions: 750 mg b.i.d. for 3 consecutive days, treatment-naïve genotype 1 subjects
Experimental: In Part C of Study 101, VX-222 was administered as multiple doses of 750 mg b.i.d. to treatment-naïve subjects with chronic hepatitis C for 3 days. In addition, in Part A of Study 102, VX-222 was administered as multiple doses ranging from 250 mg to 750 mg BID and 1500 mg once a day to treatment-naïve subjects with chronic hepatitis C for 3 days. A primary objective of Part C of Study 101 was to assess the pharmacodynamics of VX-222 in treatment-naïve subjects with genotype 1 chronic hepatitis C infection. The final pharmacodynamic parameters of VX-222 administered at 750 mg b.i.d. for 3 consecutive days are outlined below: • The mean untransformed baseline (Day 1) HCV plasma RNA level was 4962600 IU/mL (log10=6.4927). • The mean maximum reduction from baseline calculated using the log10 predose HCV plasma RNA on Days 2 to 4 was −3.6784. The correlation between the predose RNA levels and the amplitude of the reduction in log 10 HCV RNA was relatively weak.

Huh-7, ET replicon cells = assay: Drug combination luciferase assay (4-day, MacSynergy); type: cell-based, Hepatitis C virus; conditions: combination with VX-950, 4 days
Text: Replicon cell lines Huh-7, ET cells derived from the Huh-7 hepatocarcinoma cell line are obtained from Dr. Ralf Bartenschlager (Bartenschlager, R. Innovation: Hepatitis C virus replicons: potential role for drug development. Nat. Rev. Drug Discov. 2002, 1, 911-916. Krieger, N.; Lohmann, V.; Bartenschlager, R. Enhancement of hepatitis C virus RNA replication by cell culture-adaptive mutations. J. Virol. 2001, 75, 4614-4624. Lohmann, V.; Korner, F.; Koch, J.-O.; Herian, U.; Theilmann, L.; Bartenschlager, R. Replication of subgenomic hepatitis C virus RNAs in a hepatoma cell line. Science. 1999, 285, 110-113.) (Reblikon GmbH, Gau-Odernheim, Germany). […]
Huh-7, ET replicon cells are seeded in white opaque 96-well cell culture microtiter plates at sub-confluent density (3×10^3 cells per well) in a volume of 100 μL media. […] Plates are read for Luciferase counts using a luminometer (Wallac MicroBeta Trilux, Perkin Elmer™, MA, USA). […]

[3] = Study VX-222-002: combination treatment with VX-222 and VX-950 in healthy subjects (PK, safety); conditions: for AUC(0-t) / Cmax / half-life: human, plasma, oral; for AUC(0-t) / Cmax: geometric mean (CV %)
[4] = multiple doses, treatment-naïve chronic hepatitis C subjects
[5] = VX-222 400 mg BID with VX-950 1125 mg BID, Day 37, healthy subjects, fed

## CC1CCC(C(=O)N(c2cc(C#CC(C)(C)C)sc2C(=O)O)C2CCC(O)CC2)CC1 (stereo not drawn) [VX-222, 5-(3,3-Dimethylbut-1-ynyl)-3-[(trans-4-hydroxycyclohexyl)-(4-trans methylcyclohexanecarbonyl)amino]thiophene-2-carboxylic acid]
[1]; 250 to 750 mg b.i.d.
  VX-222 exposures versus dose: increased in an approximately dose proportional manner
[1]; all doses
  mean t1/2 across doses: remained unchanged across all doses
[1]; all subjects
  VX-222 concentrations at the end of the dosing intervals: > 319 ng/mL
[1]; b.i.d. regimens
  accumulation index: around 2 fold
[1]; human, in vivo
  half-life: ~300 min
[1]; human, in vivo, read-out: median tmax at steady state
  Tmax: 2 to 6 h
[1]; in vivo
  exposures in treatment-naïve HCV subjects compared to healthy subjects: around 2 fold
[1]; [4]
  accumulation index for AUC: 1.90 fold
  accumulation index for Cmax: 1.75 fold
[1]; repeated measure analyses
  time to steady state: ≤ 3 days
[2]
  mean maximum reduction from baseline, log10 predose HCV plasma RNA on Days 2 to 4: −3.6784
Huh-7, ET replicon cells
  Results VX-950 (synergy class): Moderated synergy (50 uM^2%-100 uM^2%)
Huh-7, ET replicon cells; listed as 1
  volume of synergy: 90 uM^2% and 86 uM^2%
[3]; [5]
  Tmax: 4 [4,6] hr
  Cmax: 3950 ng/mL
[3]; co-administered with VX-950, healthy subjects
  VX-222 plasma exposures: increased
[3]; healthy subjects
  VX-222 administered with VX-950 versus VX-222 alone: 2 fold
[3]; 400 mg, AUC0-12, VX-222 400 mg BID alone, Day 10, healthy subjects, fed
  AUC(0-t): 8560 ng·h/mL
[3]; 400 mg, VX-222 400 mg BID alone, Day 10, healthy subjects, fed
  Cmax: 1770 ng/mL
[3]; 400 mg, T1/2, VX-222 400 mg BID alone, Day 10, healthy subjects, fed
  half-life: 162 min
[3]; 1000 mg, AUC0-12, VX-222 1000 mg BID alone, Day 10, healthy subjects, fed
  AUC(0-t): 25800 ng·h/mL
[3]; 1000 mg, VX-222 1000 mg BID alone, Day 10, healthy subjects, fed
  Cmax: 4120 ng/mL
[3]; 1000 mg, T1/2, VX-222 1000 mg BID alone, Day 10, healthy subjects, fed
  half-life: 240 min
[3]; AUC0-12, VX-222 400 mg BID with VX-950 1125 mg BID, Day 37, healthy subjects, fed
  AUC(0-t): 29500 ng·h/mL
[3]; AUC0-12, VX-222 1000 mg BID with VX-950 1125 mg BID, Day 37, healthy subjects, fed
  AUC(0-t): 59900 ng·h/mL
[3]; VX-222 1000 mg BID with VX-950 1125 mg BID, Day 37, healthy subjects, fed
  Cmax: 8150 ng/mL
[3]; T1/2, VX-222 400 mg BID with VX-950 1125 mg BID, Day 37, healthy subjects, fed
  half-life: 324 min
[3]; T1/2, VX-222 1000 mg BID with VX-950 1125 mg BID, Day 37, healthy subjects, fed
  half-life: 210 min
